This passage reports IC50 and microsomal CLint results from patent US20240182460A1, “ALLOSTERIC CHROMENONE INHIBITORS OF PHOSPHOINOSITIDE 3-KINASE (PI3K) FOR THE TREATMENT OF DISEASE” (PETRA PHARMA CORPORATION, priority 2022, published 2024).

Structures are written as SMILES.

One data set addresses T1, PI3Kα H1047R (Homo sapiens, UniProt P42336, H1047R).
T1 construct: The MDA-MB-453 (ATCC-HTB-131) cell line (PI3Kα H1047R); host or cells: MDA-MB-453
Nature of the data set: PI3Kα H1047R mutant in vitro cell based assay, MDA-MB-453 cells (AlphaLisa SureFire). Conditions: MDA-MB-453 cell line, 0% FBS, 3 hours treatment. An excerpt: (§1) PI3K-Alpha Kinase (PI3Kα) Activity: Wild-Type PI3Kα, H1047R Mutant PI3Kα, and E545K Mutant PI3Kα In Vitro Cell Based Assays and Determination of IC50 Values for Inhibitors
(§2) The MDA-MB-453 (ATCC-HTB-131) cell line (PI3Kα H1047R) and MCF-7 (ATCC-HTB-22) cell line (PI3Kα E545K), MDA-MB-361 (ATCC-HTB-27) cell line (PI3Kα E545K), and SKBR3 (ATCC-HTB-30) cell line (wild type PI3Kα) were obtained from the American Type Culture Collection (Manassas, VA). MDA-MB-453 cells were maintained in Dulbecco's Modified Eagle Media (DMEM, Gibco 12430) supplemented with 10% Fetal Bovine Serum, heat inactivated (FBS HI, Gibco 10082), 1× non-essential amino acids (NEAA, Gibco 11140), 1 mM sodium pyruvate (Gibco 11360) and 1× Anti-Anti (Gibco 15240). MCF-7 cells were maintained in Minimum Essential Media (MEM) (Gibco 11095) supplemented with 10% Fetal Bovine Serum, heat inactivated (FBS HI, Gibco 10082), 1× non-essential amino acids (NEAA, Gibco 11140), 1 mM sodium pyruvate (Gibco 11360), 1× Anti-Anti (Gibco 15240) and 10 μg/mL human insulin (Sigma I 9278). MDA-MB-361 cells were maintained in Dulbecco's Modified Eagle Media (DMEM, Gibco 12430) supplemented with 20% Fetal Bovine Serum, heat inactivated (FBS HI, Gibco 10082), 1× non-essential amino acids (NEAA, Gibco 11140), 1 mM sodium pyruvate (Gibco 11360) and 1× Anti-Anti (Gibco 15240). SKBR3 cells were maintained in McCoy's 5A (Gibco 16600) supplemented with 10% Fetal Bovine Serum, heat inactivated (FBS HI, Gibco 10082), and 1× Anti-Anti (Gibco 15240). Cultures were maintained in a humidified incubator at 37° C. under 5% CO2/95% air.
(§3) For compound testing in 0% FBS, MDA-MB-453, MCF-7 and SKBR3 cells were seeded at a density of 1.5×10^4, 1.0×10^4, and 1.0×10^4 cells, respectively, per well in white 384-well plates in 20 μl of Minimum Essential Media (MEM) assay media with 1×NEAA, 1 mM sodium pyruvate, and 1 μg/mL human insulin (Sigma 19278) (Assay Medium); while MDA-MB-361 cells were seeded at a density of 1.5×10^4 per well in white 384-well plates in 20 μl Assay Medium without insulin. After plating, cells were allowed to attach overnight. Compounds dissolved in 10 mM stock solutions in DMSO were serially diluted 1:3 in DMSO to generate a 10-point dilution series and plated using an acoustic liquid handler system (Echo 550 Series Liquid Handler, Labcyte). A 5× intermediate compound dilution plate in MEM with 1×NEAA and 1 mM sodium pyruvate (150 μM starting compound concentration in 1.5% DMSO) was then prepared. Five μl of the intermediate serially diluted compounds were added to the cell plate to final concentrations ranging from […] in 0.3% DMSO. 0.3% DMSO alone was used to establish the maximum (MAX) signal and GDC-0032 at a final concentration of 1 μM was used as a reference compound for the minimum (MIN) signal. After 3 hours treatment, the medium was removed, and the cells were lysed in 10 μL of 1× SureFire Lysis buffer with shaking for 10 minutes at room temperature. The Acceptor Mix (Reaction Buffer 1+Reaction Buffer 2+Activation Buffer+SureFire Ultra Acceptor Beads) was prepared by diluting Activation buffer 25-fold in combined Reaction Buffer 1 and Reaction Buffer 2.
(§4) The Acceptor beads were diluted 50-fold in the combined Reaction Buffers. Five μL of Acceptor Mix was added to each well, the plate was sealed and covered with foil and incubated for 1 hour at room temperature. The Donor Mix (dilution buffer+SureFire Ultra Donor Beads) was prepared by diluting Donor Beads 50-fold in dilution buffer. Five μL of the Donor Mix was added to each well and the plate sealed and covered with foil and incubated for 1-2 hours at room temperature in the dark. The plates were read on a Neo2 plate reader instrument from Biotek using standard AlphaLisa settings.
(§5) Compounds were tested in duplicate and the % inhibition at each compound concentration was used to generate two dose response curves. One IC50 was generated using average % inhibition at each compound concentration. […]
Background: Bead proximity is the source of the signal in Alpha formats.

Data set [1] concerns the target T2, PI3Kα E545K (Homo sapiens, UniProt P42336, E545K). Nature of the data set: PI3Kα E545K mutant in vitro cell based assay, MDA-MB-361 cells. Particulars: MDA-MB-361 cell line, 0% FBS, no insulin, 3 hours treatment. More on the design: MDA-MB-361 (ATCC-HTB-27) cell line (PI3Kα E545K); host or cells: MDA-MB-361. Summed up: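 Compound exposure lasted 3 hours, in duplicate 10-point 1:3 dilutions at 0.3% DMSO final, on overnight-attached MDA-MB-361 cells carrying PI3Kα E545K in insulin-free, 0% FBS MEM. Lysates read by SureFire AlphaLISA. Relative IC50 from 4-parameter logistic fit versus DMSO and 1 μM GDC-0032 controls.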

Data set [2] deals with T2, PI3Kα E545K. Nature of the data set: PI3Kα E545K mutant in vitro cell based assay, MCF-7 cells. Conditions: MCF-7 cell line, 0% FBS, 3 hours treatment.
Description: as §1, §2, §3, §4, §5

A short description of data set [3]: Metabolic stability and intrinsic clearance in human liver microsomes (MICS). It counts as in vitro ADME. Particulars: human, microsomes, pH 7.4. Summed up:
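Parent depletion by LC-MS/MS, run in duplicate, gave in vitro t1/2 from the slope of ln(% remaining) versus time, converted to CLint (μL/min/mg protein). Incubations: 1 μM compound, microsomes at 0.5 mg/mL, pH 7.4 phosphate, 37° C, ±1 mM NADPH, timepoints 0.5, 5, 15, 30, 60 min.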

T1 sequence (P42336 whole entry H1047R): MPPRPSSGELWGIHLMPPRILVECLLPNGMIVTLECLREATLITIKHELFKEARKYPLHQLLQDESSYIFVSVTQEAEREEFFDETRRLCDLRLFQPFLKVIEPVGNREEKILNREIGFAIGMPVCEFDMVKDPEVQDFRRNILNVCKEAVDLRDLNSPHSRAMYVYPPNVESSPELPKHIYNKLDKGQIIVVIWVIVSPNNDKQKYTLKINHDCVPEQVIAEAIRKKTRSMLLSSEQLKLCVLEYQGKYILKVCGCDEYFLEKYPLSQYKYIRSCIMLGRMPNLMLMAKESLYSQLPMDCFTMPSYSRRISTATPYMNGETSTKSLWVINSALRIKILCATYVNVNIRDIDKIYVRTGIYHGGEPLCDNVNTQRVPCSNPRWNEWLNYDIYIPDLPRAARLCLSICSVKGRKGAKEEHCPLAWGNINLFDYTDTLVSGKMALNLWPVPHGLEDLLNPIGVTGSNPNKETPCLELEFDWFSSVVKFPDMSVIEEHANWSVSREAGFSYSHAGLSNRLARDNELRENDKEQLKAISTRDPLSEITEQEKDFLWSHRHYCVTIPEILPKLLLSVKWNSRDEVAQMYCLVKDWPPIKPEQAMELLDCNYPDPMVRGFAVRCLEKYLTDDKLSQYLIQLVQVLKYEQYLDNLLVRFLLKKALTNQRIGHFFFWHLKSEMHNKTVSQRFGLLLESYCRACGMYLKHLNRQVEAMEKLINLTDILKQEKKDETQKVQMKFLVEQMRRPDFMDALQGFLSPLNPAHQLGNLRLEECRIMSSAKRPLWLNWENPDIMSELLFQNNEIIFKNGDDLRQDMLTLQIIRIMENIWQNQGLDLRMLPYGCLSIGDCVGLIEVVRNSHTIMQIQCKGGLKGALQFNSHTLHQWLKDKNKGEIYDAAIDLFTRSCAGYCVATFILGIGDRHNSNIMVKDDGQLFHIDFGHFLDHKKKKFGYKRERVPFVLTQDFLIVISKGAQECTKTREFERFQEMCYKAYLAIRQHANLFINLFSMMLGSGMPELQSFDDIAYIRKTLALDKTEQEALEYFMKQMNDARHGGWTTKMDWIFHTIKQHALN
T1 sequence (P27986 whole entry partner): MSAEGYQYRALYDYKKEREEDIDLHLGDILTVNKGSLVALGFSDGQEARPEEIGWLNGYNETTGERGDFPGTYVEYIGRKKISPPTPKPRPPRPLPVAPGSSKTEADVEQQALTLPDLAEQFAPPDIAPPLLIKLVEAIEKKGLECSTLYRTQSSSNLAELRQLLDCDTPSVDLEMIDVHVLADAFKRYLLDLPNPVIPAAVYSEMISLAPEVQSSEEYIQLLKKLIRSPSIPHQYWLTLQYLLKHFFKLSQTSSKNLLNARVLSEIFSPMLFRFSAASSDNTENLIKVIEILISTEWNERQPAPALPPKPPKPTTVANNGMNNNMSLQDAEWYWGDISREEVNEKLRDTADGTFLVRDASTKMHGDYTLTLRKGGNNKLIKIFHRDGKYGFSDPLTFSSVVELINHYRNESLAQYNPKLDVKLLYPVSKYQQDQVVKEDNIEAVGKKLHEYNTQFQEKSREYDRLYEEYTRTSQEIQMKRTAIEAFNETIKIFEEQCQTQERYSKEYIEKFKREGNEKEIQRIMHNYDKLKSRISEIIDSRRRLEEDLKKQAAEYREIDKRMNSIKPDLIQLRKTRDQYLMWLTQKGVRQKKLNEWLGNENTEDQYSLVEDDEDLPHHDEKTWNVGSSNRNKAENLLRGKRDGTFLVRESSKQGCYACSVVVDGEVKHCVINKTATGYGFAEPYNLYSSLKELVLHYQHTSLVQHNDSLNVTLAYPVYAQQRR
T2 sequence (P42336 whole entry E545K): as the sequence (P42336 whole entry H1047R) above, with E545K, R1047H counted along it
T2 sequence (P27986 whole entry partner): as the sequence (P27986 whole entry partner) above

At PI3Kα H1047R, `Cc1cc([C@@H](C)Oc2ccc(Cl)nc2-c2noc(=O)[nH]2)c2oc(-c3cnc4ccoc4c3)c(C)c(=O)c2c1` [Example 6C, 3-[6-Chloro-3-[(1R)-1-(2-furo[3,2-b]pyridin-6-yl-3,6-yl)ethoxy]-2-pyridyl]-4H-dimethyl-4-oxo-chromen-8-1,2,4-oxadiazol-5-one] displayed an IC50 of under 0.1 µM. Regarding `Cc1cc([C@@H](C)Oc2ccccc2C(N)=O)c2oc(-c3ccc4nn(C)cc4c3)c(C)c(=O)c2c1` [Example 9A, 2-[(1R)-1-[3,6-Dimethyl-2-(2-methylindazol-5-yl)-4-oxo-chromen-8-yl]ethoxy]benzamide], the IC50 on PI3Kα H1047R was under 0.1 µM. `Cc1cc([C@@H](C)Oc2ccc(Cl)nc2C(N)=O)c2oc(-c3ccc4ncsc4c3)c(C)c(=O)c2c1` [Example 12B, 3-[(1R)-1-[2-(1,3-Benzothiazol-6-yl)-3,6-dimethyl-4-oxo-chromen-8-yl]ethoxy]-6-chloro-pyridine-2-carboxamide]: the figures for the IC50 against PI3Kα E545K [1] and at PI3Kα H1047R were under 0.5 µM and under 0.1 µM, respectively. Regarding `CONC(=O)c1nc(Cl)ccc1O[C@H](C)c1cc(C)cc2c(=O)c(C)c(-c3ccc4nn(C)cc4c3)oc12` [Example 26A, 6-Chloro-3-[(1R)-1-[3,6-dimethyl-2-(2-methylindazol-5-yl)-4-oxo-chromen-8-yl]ethoxy]-N-methoxy-pyridine-2-carboxamide], the IC50 against PI3Kα E545K [2] and against PI3Kα E545K [1] was under 0.5 µM in each case. The compound further gave a microsomal CLint at 1 μM in data set [3] of under 50 µL/min/mg. Compound `Cc1cc([C@@H](C)Oc2ccc(Cl)nc2S(N)(=O)=O)c2oc(-c3cnc4nonc4c3)c(C)c(=O)c2c1` [Example 30C, 6-Chloro-3-[(1R)-1-[3,6-dimethyl-2-([1,2,5]oxadiazolo[3,4-b]pyridin-6-yl)-4-oxo-chromen-8-yl]ethoxy]pyridine-2-sulfonamide] gave an IC50 at PI3Kα H1047R of under 0.1 µM. Compound `CONS(=O)(=O)c1nc(Cl)ccc1O[C@H](C)c1cc(C)cc2c(=O)c(C)c(-c3ccccc3)oc12` [Example 32A, 6-Chloro-3-[(1R)-1-(3,6-dimethyl-4-oxo-2-phenyl-chromen-8-yl)ethoxy]-N-methoxy-pyridine-2-sulfonamide] had an IC50 at PI3Kα H1047R of under 0.1 µM. On PI3Kα H1047R, `CCS(=O)(=O)c1ccc(-c2oc3c([C@@H](C)Oc4ccc(Cl)nc4S(N)(=O)=O)cc(C)cc3c(=O)c2C)cc1` [Example 33C, 6-Chloro-3-[(1R)-1-[2-(4-ethylsulfonylphenyl)-3,6-dimethyl-4-oxo-chromen-8-yl]ethoxy]pyridine-2-sulfonamide] had an IC50 of under 0.1 µM. Still for that read-out and setting: under `Cc1cc([C@@H](C)Oc2ccc(Cl)nc2S(N)(=O)=O)c2oc(-c3cnn(C)n3)c(C)c(=O)c2c1` [Example 35A, 6-Chloro-3-[(1R)-1-[3,6-dimethyl-2-(2-methyltriazol-4-yl)-4-oxo-chromen-8-yl]ethoxy]pyridine-2-sulfonamide] stands under 0.1 µM; under `Cc1cc([C@@H](C)Oc2ccc(Cl)nc2-c2noc(=O)[nH]2)c2oc(-c3cnc4c(c3)OCCN4C)c(C)c(=O)c2c1` [Example 49A, 3-[6-Chloro-3-[(1R)-1-[3,6-dimethyl-2-(4-methyl-2,3-dihydropyrido[3,2-b][1,4]oxazin-7-yl)-4-oxo-chromen-8-yl]ethoxy]-2-pyridyl]-4H-1,2,4-oxadiazol-5-lone], under 0.1 µM. Regarding `Cc1cc([C@@H](C)Oc2ccc(Cl)nc2C(N)=O)c2oc(-c3ccc4nn(C(F)F)cc4c3)c(C)c(=O)c2c1` [Example 66A, 6-Chloro-3-[(1R)-1-[2-[2-(difluoromethyl)indazol-5-yl]-3,6-dimethyl-4-oxo-chromen-8-yl]ethoxy]pyridine-2-carboxamide], the IC50 against PI3Kα E545K [2] and against PI3Kα E545K [1] was under 0.5 µM throughout. In addition, in data set [3], the microsomal CLint at 1 μM was under 50 µL/min/mg. On to `Cc1cc([C@@H](C)Oc2ccc(Cl)nc2S(N)(=O)=O)c2oc(-c3ccc4nn(CCO)cc4c3)c(C)c(=O)c2c1` [Example 88C, 6-Chloro-3-[(1R)-1-[2-[2-(2-hydroxyethyl)indazol-5-yl]-3,6-dimethyl-4-oxo-chromen-8-yl]ethoxy]pyridine-2-sulfonamide], for which, at PI3Kα H1047R, the IC50 was under 0.1 µM. `Cc1cc([C@@H](C)Oc2cccnc2S(N)(=O)=O)c2oc(-c3cnn4c3OCC4)c(C)c(=O)c2c1` [Example 95C, 3-[(1R)-1-[2-(2,3-Dihydropyrazolo[5,1-b]oxazol-7-yl)-3,6-dimethyl-4-oxo-chromen-8-yl]ethoxy]pyridine-2-sulfonamide] returned an IC50 at PI3Kα H1047R of under 0.1 µM. For the compound `Cc1cc([C@@H](C)Oc2ccc(Cl)nc2C(N)=O)c2oc(-c3cnn4c3OCCC4)c(C)c(=O)c2c1` [Example 108A, 6-Chloro-3-[(1R)-1-[2-(6,7-dihydro-5H-pyrazolo[5,1-b][1,3]oxazin-3-yl)-3,6-dimethyl-4-oxo-chromen-8-yl]ethoxy]pyridine-2-carboxamide], at PI3Kα H1047R, the IC50 was under 0.1 µM. Turning to `Cc1cc([C@@H](C)Oc2ccc(F)c(F)c2S(N)(=O)=O)c2oc(-c3cnn(C)c3)c(C)c(=O)c2c1` [Example 110C, 6-[(1R)-1-[3,6-Dimethyl-2-(1-methylpyrazol-4-yl)-4-oxo-chromen-8-yl]ethoxy]-2,3-difluoro-benzenesulfonamide], the IC50 at PI3Kα E545K [2] and against PI3Kα E545K [1] was under 0.5 µM each time. This compound also registered a microsomal CLint at 1 μM in data set [3] of under 50 µL/min/mg. On to `Cc1cc([C@@H](C)Oc2ccc(Cl)nc2S(N)(=O)=O)c2oc(-c3cn[nH]c3)c(C)c(=O)c2c1` [Example 115C, 6-Chloro-3-[(1R)-1-[3,6-dimethyl-4-oxo-2-(1H-pyrazol-4-yl)chromen-8-yl]ethoxy]pyridine-2-sulfonamide], for which the IC50 on PI3Kα E545K [2] and against PI3Kα E545K [1] was under 0.5 µM throughout. Also, the microsomal CLint at 1 μM in data set [3] was under 50 µL/min/mg. On to `Cc1cc([C@@H](C)Oc2ccc(Cl)nc2S(N)(=O)=O)c2oc(-c3cnn(CCC(F)F)c3)c(C)c(=O)c2c1` [Example 119C, 6-Chloro-3-[(1R)-1-[2-[1-(3,3-difluoropropyl)pyrazol-4-yl]-3,6-dimethyl-4-oxo-chromen-8-yl]ethoxy]pyridine-2-sulfonamide], for which the half-maximal inhibitory concentration (IC50) at PI3Kα E545K [2] and at PI3Kα E545K [1] was under 0.5 µM throughout. The compound further returned a microsomal CLint at 1 μM in data set [3] of under 50 µL/min/mg.

As a reminder, the IC50 is the concentration that gives 50% inhibition. Read a high IC50 as lower potency. Broadly, the microsomal CLint is a measure of how fast metabolising enzymes remove a compound, apart from limits set by blood flow. A lower microsomal CLint goes with greater metabolic stability.
